Measured values from patent US11149036B2, “3-(1H-pyrazol-4-yl)pyridine allosteric modulators of the M4 muscarinic acetylcholine receptor” (Merck Sharp & Dohme Corp., priority 2017, dated 2021).

Biological target: T1, human M4 muscarinic acetylcholine receptor (Homo sapiens, UniProt P08173)
T1 construct: expressed in transfected cells; host or cells: CHO-K1
T1 sequence (P08173 1-479): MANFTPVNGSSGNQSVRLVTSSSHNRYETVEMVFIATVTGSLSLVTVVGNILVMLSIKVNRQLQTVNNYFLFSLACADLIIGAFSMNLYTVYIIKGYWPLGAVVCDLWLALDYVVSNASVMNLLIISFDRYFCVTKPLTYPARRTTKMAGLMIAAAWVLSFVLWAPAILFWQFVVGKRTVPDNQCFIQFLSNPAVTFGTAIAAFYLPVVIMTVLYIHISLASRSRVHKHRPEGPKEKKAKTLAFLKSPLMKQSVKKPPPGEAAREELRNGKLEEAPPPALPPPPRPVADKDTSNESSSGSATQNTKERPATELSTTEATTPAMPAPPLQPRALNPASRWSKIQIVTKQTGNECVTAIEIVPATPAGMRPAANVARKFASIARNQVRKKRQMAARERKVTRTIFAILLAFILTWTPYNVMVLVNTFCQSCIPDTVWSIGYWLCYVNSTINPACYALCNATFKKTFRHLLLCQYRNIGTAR
Assay: human FLIPR-based M4 PAM assay (CHO-K1 cells with human M4 receptor and Gaqi5, calcium dye fluorescence)
Assay type: cell-based
Conditions: inflection point (IP) of dose response curve, acetylcholine added at 20% of maximum response, read-out: M4 FLIPPR Hu IP
Procedure: (§1) In a typical experiment the M4 muscarinic acetylcholine receptor modulating activity of the compounds of the present invention was determined in accordance with the following experimental method. CHO-K1 cells stably transfected with human M4 receptor and chimeric G-protein Gaqi5 (Coward P, et al., Analytical Biochemistry, 270:242-248 (1999)) are thawed from liquid N2 storage, resuspended in growth medium, plated in black, clear bottom 384 well plates, and incubated 16-20 hours at 37° C., 5% CO2. On the day of assay, growth medium is removed, the cells are washed 2 times with wash buffer, and cells are incubated in dye loading buffer at 37° C., 5% CO2 for ˜1 hour. Following dye loading the cell plates are placed in a FLIPR Tetra instrument and while monitoring dye fluorescence (excitation 470-495 […]), 10 uL of test substance at increasing concentrations is added, and fluorescence values are recorded for 4 min. Next, 10 uL of acetylcholine is added (final concentration calculated so as to achieve 20% of the maximum acetycholine response), and the fluorescence reading is continued for 3.5 min. In some cases, a third addition of acetylcholine (final concentration calculated to achieve 70% of the maximal acetylcholine response) is performed. The resulting dose response curves are fit to a 4 parameter logistic equation and the final result is determined as the inflection point (IP) of the curve
as §1, with “CHO-K1” for “In a typical experiment the M4 muscarinic acetylcholine receptor modulating activity of the compounds of the present invention was determined in accordance with the following experimental method. CHO-K1”, “Gaqi5” for “Gaqi5 (Coward P, et al., Analytical Biochemistry, 270:242-248 (1999))”, “performed.” for “performed. The resulting dose response curves are fit to a 4 parameter logistic equation and the final result is determined as the inflection point (IP) of the curve”

Question: With Cc1cnc(-c2ccn3ncnc3c2)c(-c2cnn(CC3(C)CCCC3)c2)c1 [Example 113, 7-(5-methyl-3-(1-((1-methylcyclopentyl)methyl)-1H-pyrazol-4-yl)pyridin-2-yl)-[1,2,4]triazolo[1,5-a] pyridine] as the compound, how does the EC50 read?
Answer: 0.079 µM

Question: With c1cnc(-c2ccc3cccnc3c2)c(-c2cnn(CC3CCCC3)c2)c1 [Example 147, 7-(3-(1-(cyclopentylmethyl)-1H-pyrazol-4-yl)pyridin-2-yl)quinoline] as the compound, how does the EC50 read?
Answer: 0.05 µM

Question: For COc1nc(-c2ccn3cc(C)nc3c2)c(-c2cnn(CC3(F)CCCC3)c2)cc1F [Example 114, 7-(5-fluoro-3-(1-((1-fluorocyclopentyl)methyl)-1H-pyrazol-4-yl)-6-methoxypyridin-2-yl)-2-methylimidazo[1,2-a]pyridine], which EC50 is on record?
Answer: 0.14 µM

Question: With CC1(Cn2ncc(-c3ccc(C#N)nc3-c3ccn4ccnc4c3)c2Cl)CCCC1 [Example 81, 5-(5-chloro-1-((1-methylcyclopentyl)methyl)-1H-pyrazol-4-yl)-6-(imidazo[1,2-a]pyridin-7-yl)picolinonitrile] as the compound, how does the EC50 read?
Answer: 0.082 µM

Question: Clc1ccc(-c2cnn(CC3CCCC3)c2)c(-c2ccc3cccnc3c2)n1 [Example 165, 7-(6-chloro-3-(1-(cyclopentylmethyl)-1H-pyrazol-4-yl)pyridin-2-yl)quinoline] was tested. Which EC50 did it give?
Answer: 0.007 µM

Question: Cc1cc(-c2cnn(CC3(C)CCCC3)c2)c(-c2ccn3ccnc3c2)nc1F [Example 93, 7-(6-fluoro-5-methyl-3-(1-((1-methylcyclopentyl)methyl)-1H-pyrazol-4-yl)pyridin-2-yl)imidazo[1,2-a]pyridine] was tested. Which EC50 did it give?
Answer: 0.034 µM

Question: With Cc1ccc(-c2cnn(C[C@H]3CC[C@@H](F)C3)c2)c(-c2ccc3cccnc3c2)n1 (single isomer, unassigned) [Example 134, 7-(3-(1-(((1S,3R) or (1R,3S)-3-fluorocyclopentyl)methyl)-1H-pyrazol-4-yl)-6-methylpyridin-2-yl)quinoline] as the compound, how does the EC50 read?
Answer: 0.026 µM

Question: FC(F)Oc1ccc(-c2cnn(CC3CCCC3)c2)c(-c2ccc3cccnc3c2)n1 [Example 166, 7-(3-(1-(cyclopentylmethyl)-1H-pyrazol-4-yl)-6-(difluoromethoxy)pyridin-2-yl)quinoline] was tested. Which EC50 did it give?
Answer: 0.026 µM

Question: How did the EC50 turn out when Cn1cnc2cc(-c3nc(C(F)F)ccc3-c3cnn(C[C@@H]4CC[C@@H](F)C4)c3)ccc21 [Example 121, 5-(6-(difluoromethyl)-3-(1-(((1R,3R)-3-fluorocyclopentyl)methyl)-1H-pyrazol-4-yl)pyridin-2-yl)-1-methyl-1H-benzo[d] imidazole] was run?
Answer: 0.05 µM

Question: N#Cc1ccc(-c2cnn(CC3(F)CCCC3)c2)c(-c2ccn3cnnc3c2)n1 [Example 42, 6-([1,2,4]triazolo[4,3-a]pyridin-7-yl)-5-(1-((1-fluorocyclopentyl)methyl)-1H-pyrazol-4-yl)picolinonitrile] was tested. Which EC50 did it give?
Answer: 0.032 µM

Question: Which EC50 does the source give for CC1(Cn2cc(-c3ccc(C#N)nc3-c3ccn4c(F)cnc4c3)cn2)CCCC1 [Example 74, 6-(3-fluoroimidazo[1,2-a]pyridin-7-yl)-5-(1-((1-methylcyclopentyl)methyl)-1H-pyrazol-4-yl)picolinonitrile] here?
Answer: 0.058 µM

Question: Cc1cn2ccc(-c3nc(C#N)ccc3-c3cnn(CC4(F)CCCC4)c3)cc2n1 [Example 3, 5-(1-((1-fluorocyclopentyl)methyl)-1H-pyrazol-4-yl)-6-(2-methylimidazo[1,2-a]pyridin-7-yl)picolinonitrile] was tested. Which EC50 did it give?
Answer: 0.012 µM

Question: How did the EC50 turn out when COc1cc2ccc(-c3nc(C#N)ccc3-c3cnn(CC4(F)CCCC4)c3)cn2n1 [Example 64, 5-(1-((1-fluorocyclopentyl)methyl)-1H-pyrazol-4-yl)-6-(2-methoxypyrazolo[1,5-a]pyridin-6-yl)picolinonitrile] was run?
Answer: 0.022 µM

Question: How did the EC50 turn out when COc1cc2ccc(-c3nc(C)ccc3-c3cnn(CC4(C)CCC(F)(F)C4)c3)cc2nn1 (single isomer, unassigned; isomer b) [Example 151, (S or R)-7-(3-(1-((3,3-difluoro-1-methylcyclo-pentyl)methyl)-1H-pyrazol-4-yl)-6-methylpyridin-2-yl)-3-methoxycinnoline isomer B] was run?
Answer: 0.03 µM

Question: How did the EC50 turn out when COc1cc2ccc(-c3nc(C(F)F)ccc3-c3cnn(C[C@@H]4CC[C@@H](F)C4)c3)cc2nn1 [Example 122, 7-(6-(difluoromethyl)-3-(1-(((1R,3R)-3-fluorocyclopentyl)methyl)-1H-pyrazol-4-yl)pyridin-2-yl)-3-methoxycinnoline] was run?
Answer: 0.059 µM

Question: Cn1cnc2cc(-c3nc(C#N)ccc3-c3cnn(C[C@@H]4CC[C@@H](F)C4)c3)ccc21 [Example 70, 5-(1-(((1R,3R)-3-fluorocyclopentyl)methyl)-1H-pyrazol-4-yl)-6-(1-methyl-1H-benzo[d]imidazol-5-yl)picolinonitrile] was tested. Which EC50 did it give?
Answer: 0.049 µM

Question: Cc1cn2ccc(-c3ncc(Cl)cc3-c3cnn(CC4(F)CCCC4)c3)cc2n1 [Example 110, 7-(5-chloro-3-(1-((1-fluorocyclopentyl)methyl)-1H-pyrazol-4-yl)pyridin-2-yl)-2-methylimidazo[1,2-a] pyridine] was tested. Which EC50 did it give?
Answer: 0.023 µM

Question: How did the EC50 turn out when Cc1nnc2cc(-c3nc(C#N)c(F)cc3-c3cnn(CC4(F)CCCC4)c3)ccn12 [Example 90, 3-fluoro-5-(1-((1-fluorocyclopentyl)methyl)-1H-pyrazol-4-yl)-6-(3-methyl-[1,2,4]triazolo [4,3-a]pyridin-7-yl)picolinonitrile] was run?
Answer: 0.042 µM

Question: How did the EC50 turn out when Cc1ccc(-c2cnn(CC3CCC(F)(F)C3)c2)c(-c2ccc3cccnc3c2)n1 (single isomer, unassigned) [Example 130, (R or S)-7-(3-(1-((3,3-difluorocyclopentyl)methyl)-1H-pyrazol-4-yl)-6-methylpyridin-2-yl)quinoline] was run?
Answer: 0.025 µM

Question: Which EC50 does the source give for Cn1cnc2cc(-c3nccc(F)c3-c3cnn(CC4(C)CCCC4)c3)cnc21 [Example 107, 6-(4-fluoro-3-(1-((1-methylcyclopentyl)methyl)-1H-pyrazol-4-yl)pyridin-2-yl)-3-methyl-3H-imidazo[4,5-b] pyridine] here?
Answer: 0.036 µM

Question: Which EC50 does the source give for Cc1ccc(-c2cnn(CC3CCCC3)c2)c(-c2ccc3cc(I)nnc3c2)n1 [Example 159, 7-(3-(1-(cyclopentylmethyl)-1H-pyrazol-4-yl)-6-methylpyridin-2-yl)-3-iodocinnoline] here?
Answer: 0.014 µM

Question: With Cc1cc(-c2cnn(CC3(F)CCCC3)c2)c(-c2ccn3ncnc3c2)nc1C#N [Example 143, 6-([1,2,4]triazolo[1,5-a]pyridin-7-yl)-5-(1-((1-fluorocyclopentyl)methyl)-1H-pyrazol-4-yl)-3-methylpicolinonitrile] as the compound, how does the EC50 read?
Answer: 0.071 µM

Question: Which EC50 does the source give for Cc1cn2ccc(-c3nc(C#N)ccc3-c3cnn(C[C@H]4CC[C@H](F)C4)c3)cc2n1 [Example 69, 5-(1-(((1S,3S)-3-fluorocyclopentyl)methyl)-1H-pyrazol-4-yl)-6-(2-methylimidazo[1,2-a]pyridin-7-yl)picolinonitrile] here?
Answer: 0.025 µM

Question: Which EC50 does the source give for Cc1ccc(-c2cnn(CC3CCCC3)c2)c(-c2ccc(C(O)C(F)(F)F)cc2)n1 (stereo not drawn) [Example 9, 1-(4-(3-(1-(cyclopentylmethyl)-1H-pyrazol-4-yl)-6-methylpyridin-2-yl)phenyl)-2,2,2-trifluoroethan-1-ol] here?
Answer: 0.05 µM

Question: Which EC50 does the source give for COCc1cn2ccc(-c3nc(C#N)ccc3-c3cnn(CC4(C)CCCC4)c3)cc2n1 [compound 156, 6-(2-(methoxymeth-yl)imidazo[1,2-a]pyridin-7-yl)-5-(1-((1-methylcyclopentyl)meth-yl)-1H-pyrazol-4-yl)picolinonitrile] here?
Answer: 0.029 µM

Question: How did the EC50 turn out when Cc1cn2ccc(-c3nc(C#N)ccc3-c3cnn(CC4C[C@@H](F)[C@H](F)C4)c3)cc2n1 [Example 83, 5-(1-(((3R,4R)-3,4-difluorocyclopentyl)methyl)-1H-pyrazol-4-yl)-6-(2-methylimidazo[1,2-a]pyridin-7-yl)picolinonitrile] was run?
Answer: 0.026 µM

Question: CCc1nc2cc(-c3nc(C#N)ccc3-c3cnn(CC4(F)CCCC4)c3)ccn2n1 [Example 65, 6-(2-ethyl-[1,2,4]triazolo[1,5-a]pyridin-7-yl)-5-(1-((1-fluorocyclopentyl)methyl)-1H-pyrazol-4-yl)picolinonitrile] was tested. Which EC50 did it give?
Answer: 0.028 µM
